Results on eleven molecules are retold here after patent US11306064B2, “Benzothia(di)azepine compounds and their use as bile acid modulators” (Albireo AB, priority 2018, dated 2022).

The nature of data set [1]: Bioavailability studies in mice. It is filed as in vivo. Conditions: mouse; C57BL/6 mice; single intravenous dose 1 mg/kg vs single oral dose 10 mg/kg; plasma LC-MS/MS. On the procedure:
C57BL/6 mice of 8-9 weeks old were used. For each test compound, two groups of 3 animals each were used. One group was administered a single intravenous dose of 1 mg/kg (vehicle 100% DMSO) through the tail vein and the other group was administered a single oral dose of 10 mg/kg through gavage needle. The group that was administered an oral dose was fasted overnight. Blood samples were collected after 0.083, 0.25, 0.5, 1, 2, 4, 6, 8 and 24 hours following intravenous administration, and after 0.25, 0.5, 1, 2, 4, 6, 8 and 24 hours following oral administration. Blood samples were taken from saphenous vein. 0.2% EDTA was used as the anticoagulant. The samples were analyzed by a discovery grade bioanalytical method developed for the estimation of test compound in plasma, using an LC-MS/MS system.

For another data set, the system named is HepaRG cells. As to the kind of experiment: HepaRG-based assay: 3H-taurocholic acid uptake in differentiated HepaRG cells. Conditions: Homo sapiens, HepaRG, 0.3 μM 3H-taurocholic acid and 7.5 μM cold taurocholic acid, 30 minutes. Type of data set: cell-based. The method in brief:
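Differentiated HepaRG cells cultured 7 days post-seeding were exposed for 30 min at 37 °C to 0.3 μM 3H-taurocholic acid plus 7.5 μM cold taurocholic acid with inhibitor (3-fold dilutions, 0.2% DMSO). Uptake was stopped on ice, washed with 1 mM unlabelled taurocholic acid, and counted by scintillation.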

The target in another data set is T1, Human LBAT (Homo sapiens, UniProt Q14973).
T1 construct: expressed in transfected cells; kept under Geneticin selection
T1 sequence (Q14973 1-349): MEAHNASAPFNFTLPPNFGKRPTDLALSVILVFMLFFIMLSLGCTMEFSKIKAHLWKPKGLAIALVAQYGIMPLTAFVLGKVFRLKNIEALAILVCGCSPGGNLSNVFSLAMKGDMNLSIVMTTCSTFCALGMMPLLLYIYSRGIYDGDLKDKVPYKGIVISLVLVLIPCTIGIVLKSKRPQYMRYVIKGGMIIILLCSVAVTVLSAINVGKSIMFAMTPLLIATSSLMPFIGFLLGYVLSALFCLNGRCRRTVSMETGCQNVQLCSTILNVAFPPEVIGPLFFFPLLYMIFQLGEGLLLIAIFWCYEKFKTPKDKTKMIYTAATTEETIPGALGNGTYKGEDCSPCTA
As to the kind of experiment: LBAT (h/m) assay: 3H-taurocholic acid uptake in human LBAT-overexpressing cells. It is filed as cell-based. Conditions: 0.3 μM 3H-taurocholic acid and 7.5 μM cold taurocholic acid, 20 minutes, read-out: hLBAT IC50. The method in brief: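 LBAT-overexpressing cells, serum-free MEM-alpha, 20 min at 37° C with inhibitor (3-fold, 10-point) plus 0.3 μM 3H-taurocholic acid and cold taurocholic acid (7.5 μM human; 25 μM mouse), 0.2% DMSO. Stopped on ice, washed with 1 mM unlabelled taurocholate; uptake by scintillation counting.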

The target of the next data set is T2, Human ASBT (Homo sapiens, UniProt Q12908).
T2 construct: expressed in transfected cells; kept under Puromycin selection
T2 sequence (Q12908 1-348): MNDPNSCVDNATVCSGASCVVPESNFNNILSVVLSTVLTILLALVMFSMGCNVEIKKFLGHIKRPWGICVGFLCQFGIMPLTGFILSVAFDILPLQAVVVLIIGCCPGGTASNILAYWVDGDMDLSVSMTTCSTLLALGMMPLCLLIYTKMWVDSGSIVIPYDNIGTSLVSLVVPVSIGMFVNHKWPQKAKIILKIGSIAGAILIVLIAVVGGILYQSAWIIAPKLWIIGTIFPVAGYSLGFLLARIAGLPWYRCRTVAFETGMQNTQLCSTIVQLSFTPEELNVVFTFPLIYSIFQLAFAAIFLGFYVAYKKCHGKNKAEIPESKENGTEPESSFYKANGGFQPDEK
As to the kind of experiment: ASBT (h/m) assay: 3H-taurocholic acid uptake in human ASBT-overexpressing cells. The note with it: 0.25 μM 3H-taurocholic acid and 5 μM cold taurocholic acid, 20 minutes, read-out: hASBT IC50. It is filed as cell-based. The method in brief: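 ASBT-overexpressing cells, seeded 48 h earlier, took up 0.25 µM 3H-taurocholic acid plus 5 µM cold taurocholate for 20 min at 37 °C with inhibitor (10-point 3-fold series, top 10 µM, 0.2% DMSO). Ice stop, washes with cold 1 mM taurocholate in HEPES-HBSS pH 7.4, scintillation counting.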

Usually bioavailability stands for dose-corrected exposure relative to a reference, in per cent. Read a low bioavailability as little systemic uptake. One may read the IC50 as the midpoint of a concentration-inhibition curve.

Molecules are shown by their SMILES.

As for `CCCC[C@@]1(CC)CN(c2ccccc2)c2cc(SC)c(O/C=C(\F)C(=O)O)cc2S(=O)(=O)N1C` (single isomer, unassigned) [Example 99], the bioavailability in data set [1] was determined as 20%. Besides, the concentration for half-maximal inhibition (IC50) in the data set on HepaRG cells worked out at 325 nM; at Human LBAT it was 4.4 nM.
As for `CCCCC1(CC)CN(c2ccccc2)c2cc(SCC)c(O/C=C(\F)C(=O)O)cc2S(=O)(=O)C1` (stereo not drawn) [Example 72, (Z)-3-((3-butyl-3-ethyl-7-(ethylthio)-1,1-dioxido-5-phenyl-2,3,4,5-tetrahydro-1,5-benzothiazepin-8-yl)oxy)-2-fluoroacrylic Acid], the half-inhibitory concentration (IC50) on Human ASBT stood at 76 nM; in the data set with HepaRG cells it was 319 nM; at Human LBAT it was 13 nM.
Regarding `CCCCC1(CC)CN(c2ccccc2)c2cc(SCC)c(O/C=C/C(=O)O)cc2S(=O)(=O)C1` (stereo not drawn) [Example 73, (E)-3-((3-butyl-3-ethyl-7-(ethylthio)-1,1-dioxido-5-phenyl-2,3,4,5-tetrahydro-1,5-benzothiazepin-8-yl)oxy)acrylic Acid], the IC50 at Human ASBT came out at 155 nM; in the data set with HepaRG cells, 766 nM; at Human LBAT it was 120 nM.
On the same counts, the results for `CCCCC1(CCCC)CN(c2ccccc2)c2cc(SC)c(O/C=C(\C)C(=O)O)cc2S(=O)(=O)N1` [Example 74, (E)-3-((3,3-dibutyl-7-(methylthio)-1,1-dioxido-5-phenyl-2,3,4,5-tetrahydro-1,2,5-benzothiadiazepin-8-yl)oxy)-2-methylacrylic Acid] are 57 nM, 3380 nM and 649 nM.
Take `CCCCC1(CCCC)CN(c2ccc(C(=O)NC(C)(C)C)cc2)c2cc(SC)c(O/C=C(\F)C(=O)O)cc2S(=O)(=O)C1` [Example 79, (Z)-3-((3,3-dibutyl-5-(4-(tert-butylcarbamoyl)phenyl)-7-(methylthio)-1,1-dioxido-2,3,4,5-tetrahydro-1,5-benzothiazepin-8-yl)oxy)-2-fluoroacrylic Acid]: the 50% inhibitory concentration (IC50) at Human ASBT was above 1000 nM; in the data set with HepaRG cells it was 246 nM; at Human LBAT, 8 nM.
As for `CCCCC1(CC)CN(c2ccccc2)c2cc(Br)c(O/C=C/C(=O)O)cc2S(=O)(=O)N1` (stereo not drawn) [Example 87, (E)-3-((7-bromo-3-butyl-3-ethyl-1,1-dioxido-5-phenyl-2,3,4,5-tetrahydro-1,2,5-benzothiadiazepin-8-yl)oxy)acrylic Acid], the results for the IC50 at Human ASBT, with HepaRG cells and at Human LBAT were 157 nM, 1080 nM and 220 nM, respectively.
As to `CCCCC1(CCCC)CN(c2ccc(O)cc2)c2cc(SC)c(O/C=C(\F)C(=O)O)cc2S(=O)(=O)C1` [Example 95, (Z)-3-((3,3-dibutyl-5-(4-hydroxyphenyl)-7-(methylthio)-1,1-dioxido-2,3,4,5-tetrahydro-1,5-benzothiazepin-8-yl)oxy)-2-fluoroacrylic Acid], the half-inhibitory concentration (IC50) at Human ASBT amounted to 17 nM; with HepaRG cells, 1220 nM; at Human LBAT it was 77 nM.
As to `CCCCC1(CC)CN(c2ccccc2)c2cc(F)c(O/C=C(\F)C(=O)O)cc2S(=O)(=O)C1` (stereo not drawn) [Example 96, (Z)-3-((3-butyl-3-ethyl-7-fluoro-1,1-dioxido-5-phenyl-2,3,4,5-tetrahydro-1,5-benzothiazepin-8-yl)oxy)-2-fluoroacrylic Acid], the results for the IC50 on Human ASBT, in the data set on HepaRG cells and on Human LBAT were 15 nM, 785 nM and 231 nM, respectively.
Consider `CCCCC1(CC)CN(c2ccccc2)c2cc(Br)c(O/C=C(\F)C(=O)O)cc2S(=O)(=O)N1C` (stereo not drawn) [Example 106, (Z)-3-((7-bromo-3-butyl-3-ethyl-2-methyl-1,1-dioxido-5-phenyl-2,3,4,5-tetrahydro-1,2,5-benzothiadiazepin-8-yl)oxy)-2-fluoroacrylic Acid], for which the results for the IC50 at Human ASBT, in the data set with HepaRG cells and at Human LBAT were 673 nM, 246 nM and 31 nM, respectively.
With `CCCCC1(CCCC)CN(c2ccc(F)c(F)c2)c2cc(SC)c(O/C=C(\F)C(=O)O)cc2S(=O)(=O)C1` [Example 107, (Z)-3-((3,3-dibutyl-5-(3,4-difluorophenyl)-7-(methylthio)-1,1-dioxido-2,3,4,5-tetrahydro-1,5-benzothiazepin-8-yl)oxy)-2-fluoroacrylic Acid], the concentration for half-maximal inhibition (IC50) turned out to be 59 nM at Human ASBT, 365 nM with HepaRG cells and 50 nM on Human LBAT.
On to `CCCCC1(CC)CN(c2ccccc2)c2cc(N(C)C)c(O/C=C(\F)C(=O)O)cc2S(=O)(=O)C1` (stereo not drawn) [Example 108, (Z)-3-((3-butyl-7-(dimethylamino)-3-ethyl-1,1-dioxido-5-phenyl-2,3,4,5-tetrahydro-1,5-benzothiazepin-8-yl)oxy)-2-fluoroacrylic Acid], for which the values for the IC50 at Human ASBT, in the data set with HepaRG cells and on Human LBAT were 8.5 nM, 447 nM and 5.9 nM, respectively.
